Experimental data from article PMC3063489 (Molecular and biochemical parasitology, 2011).
Where two headings read alike, the source gives them in different places.

Columns and labels:
[1] = target: GFP-SmDAT (Schistosoma mansoni, UniProt E9LD23); format: cell-based; details: COS-7 cells; for uptake of tritiated substrate by SmDAT: 100 nM of each substrate, normalized to dopamine uptake (Fig. 2A)
[2] = test system: Schistosoma mansoni adult worms; details: adult worms treated with dopamine; cited from earlier work
[3] = target: hDAT (Homo sapiens, UniProt Q01959); details: COS-7 cells
Chain of hDAT (Q01959 whole entry): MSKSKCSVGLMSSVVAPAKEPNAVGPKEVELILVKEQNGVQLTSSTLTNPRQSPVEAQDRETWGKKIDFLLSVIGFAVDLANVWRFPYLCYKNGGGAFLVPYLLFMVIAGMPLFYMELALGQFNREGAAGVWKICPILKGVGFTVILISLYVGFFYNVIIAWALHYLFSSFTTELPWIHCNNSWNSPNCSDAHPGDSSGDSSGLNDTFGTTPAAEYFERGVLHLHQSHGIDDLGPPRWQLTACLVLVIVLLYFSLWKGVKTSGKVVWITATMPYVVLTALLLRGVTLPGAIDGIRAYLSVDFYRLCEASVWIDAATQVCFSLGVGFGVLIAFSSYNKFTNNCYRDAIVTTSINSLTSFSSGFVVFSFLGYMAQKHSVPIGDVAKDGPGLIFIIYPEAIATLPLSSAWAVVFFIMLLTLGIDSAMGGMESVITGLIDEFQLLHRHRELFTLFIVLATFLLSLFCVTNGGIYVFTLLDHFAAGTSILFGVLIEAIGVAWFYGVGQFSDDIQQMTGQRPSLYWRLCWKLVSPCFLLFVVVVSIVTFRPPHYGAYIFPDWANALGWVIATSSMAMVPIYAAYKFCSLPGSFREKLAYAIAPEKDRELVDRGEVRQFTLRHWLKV

[4] = test system: Schistosoma; details: cited from earlier work

Structure (SMILES): NC[C@H](O)c1ccc(O)c(O)c1 [Norepinephrine]
- uptake of tritiated substrate by SmDAT [1]: low but significant levels

Structure (SMILES): NCCc1ccc(O)c(O)c1 [dopamine]
- Vmax of dopamine uptake, GFP-SmDAT [1]: 0.16 ± 0.04 pmol/well/min
- Vmax of dopamine uptake, GFP-SmDAT ([1]; unit as printed in legend of Fig. 2): 0.16 ± 0.04 pmol/min
- effect on adult worms [2]: relaxation of muscles and a lengthening of the worms
- Vmax of dopamine uptake, hDAT [3]: 0.9 ± 0.2 pmol/well/min

Structure (SMILES): O=C(C1CCCCC1)N1CC(=O)N2CCc3ccccc3C2C1 (stereo not shown) [praziquantel]
- activity on immature worms and eggs [4]: not active

Structure (SMILES): NCCc1c[nH]c2ccc(O)cc12 [serotonin]
- uptake of tritiated substrate by SmDAT [1]: could not detect any detectable levels
